Measured values reported in PubChem BioAssay (NCI).
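Method: 48-hour compound exposure of cells in 96-well plates, five concentrations, linear interpolation of endpoints. At the GI50, growth is halved. The concentration for full growth arrest is given as TGI.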

Assays:
Assay in all cases: growth of human tumour cells (NCI), 48 h
UO-31 renal = test system: UO-31 renal
SK-MEL-28 melanoma = test system: SK-MEL-28 melanoma
CCRF-CEM leukemia = test system: CCRF-CEM leukemia
NCI-H23 lung = test system: NCI-H23 lung
U251 CNS = test system: U251 CNS
SNB-75 CNS = test system: SNB-75 CNS
HOP-62 NSCLC = test system: HOP-62 NSCLC
MDA-MB-231 breast = test system: MDA-MB-231 breast
MDA-MB-435 = test system: MDA-MB-435
ACHN renal = test system: ACHN renal
UACC-257 melanoma = test system: UACC-257 melanoma
OVCAR-8 ovarian = test system: OVCAR-8 ovarian
NCI-H460 lung = test system: NCI-H460 lung
SK-OV-3 ovarian = test system: SK-OV-3 ovarian
OVCAR-3 ovarian = test system: OVCAR-3 ovarian
RXF 393 renal = test system: RXF 393 renal
KM12 colon = test system: KM12 colon
SNB-19 CNS = test system: SNB-19 CNS
SK-MEL-5 melanoma = test system: SK-MEL-5 melanoma
T-47D breast = test system: T-47D breast
HCT-116 colon = test system: HCT-116 colon
A498 renal = test system: A498 renal
SK-MEL-2 melanoma = test system: SK-MEL-2 melanoma
HS 578T breast = test system: HS 578T breast
HT29 colon = test system: HT29 colon
SF-295 CNS = test system: SF-295 CNS
EKVX NSCLC = test system: EKVX NSCLC
M14 melanoma = test system: M14 melanoma
MOLT-4 leukemia = test system: MOLT-4 leukemia
NCI-H522 lung = test system: NCI-H522 lung
SR leukemia = test system: SR leukemia
BT-549 breast = test system: BT-549 breast
HOP-92 NSCLC = test system: HOP-92 NSCLC
COLO 205 colon = test system: COLO 205 colon
786-0 renal = test system: 786-0 renal
MALME-3M melanoma = test system: MALME-3M melanoma
HCC-2998 colon = test system: HCC-2998 colon
K-562 leukemia = test system: K-562 leukemia
IGROV1 ovarian = test system: IGROV1 ovarian
LOX IMVI melanoma = test system: LOX IMVI melanoma
SN12C renal = test system: SN12C renal
CAKI-1 renal = test system: CAKI-1 renal
HL-60(TB) leukemia = test system: HL-60(TB) leukemia
DU-145 prostate = test system: DU-145 prostate
MCF7 breast = test system: MCF7 breast
HCT-15 colon = test system: HCT-15 colon
TK-10 renal = test system: TK-10 renal
SF-539 CNS = test system: SF-539 CNS
UACC-62 melanoma = test system: UACC-62 melanoma
SF-268 CNS = test system: SF-268 CNS
A549 NSCLC = test system: A549 NSCLC
SW-620 colon = test system: SW-620 colon
NCI/ADR-RES ovarian = test system: NCI/ADR-RES ovarian
NCI-H226 lung = test system: NCI-H226 lung
RPMI-8226 leukemia = test system: RPMI-8226 leukemia
OVCAR-5 ovarian = test system: OVCAR-5 ovarian
OVCAR-4 ovarian = test system: OVCAR-4 ovarian
PC-3 prostate = test system: PC-3 prostate

## COc1cccc(/C=N/NC(=O)c2ccccc2Nc2ccnc(C(F)(F)F)c2)c1O
UO-31 renal
  GI50: 303 nM
SK-MEL-28 melanoma
  GI50: 1480 nM
  TGI: > 34700 nM
CCRF-CEM leukemia
  GI50: 115 nM
  TGI: 2020 nM
NCI-H23 lung
  GI50: 904 nM
  TGI: 46900 nM
U251 CNS
  GI50: 449 nM
  TGI: > 100000 nM
SNB-75 CNS
  GI50: 1620 nM
  TGI: > 76500 nM
HOP-62 NSCLC
  GI50: 431 nM
  TGI: > 53600 nM
MDA-MB-231 breast
  GI50: 423 nM
  TGI: > 100000 nM
MDA-MB-435
  GI50: 1260 nM
  TGI: > 100000 nM
ACHN renal
  GI50: 279 nM
  TGI: > 100000 nM
UACC-257 melanoma
  GI50: 346 nM
  TGI: 5880 nM
OVCAR-8 ovarian
  GI50: 319 nM
  TGI: > 38000 nM
NCI-H460 lung
  GI50: 262 nM
  TGI: 8260 nM
SK-OV-3 ovarian
  GI50: 583 nM
  TGI: 31000 nM
OVCAR-3 ovarian
  GI50: 169 nM
  TGI: 43900 nM
RXF 393 renal
  GI50: 728 nM
  TGI: 28000 nM
KM12 colon
  GI50: 457 nM
  TGI: > 56400 nM
SNB-19 CNS
  GI50: 2410 nM
  TGI: > 100000 nM
SK-MEL-5 melanoma
  GI50: 418 nM
  TGI: 5650 nM
T-47D breast
  GI50: 498 nM
  TGI: 38800 nM
HCT-116 colon
  GI50: 311 nM
  TGI: > 67200 nM
A498 renal
  GI50: 5110 nM
  TGI: > 42800 nM
SK-MEL-2 melanoma
  GI50: 2130 nM
  TGI: > 44000 nM
HS 578T breast
  GI50: 1080 nM
  TGI: > 46700 nM
HT29 colon
  GI50: 4060 nM
  TGI: > 100000 nM
SF-295 CNS
  GI50: 522 nM
  TGI: 29100 nM
EKVX NSCLC
  GI50: 517 nM
  TGI: > 100000 nM
M14 melanoma
  GI50: 375 nM
  TGI: > 23200 nM
MOLT-4 leukemia
  GI50: 196 nM
  TGI: 1190 nM
NCI-H522 lung
  GI50: 521 nM
  TGI: 46100 nM
SR leukemia
  GI50: 47.7 nM
  TGI: 417 nM
BT-549 breast
  GI50: 567 nM
  TGI: 54300 nM
HOP-92 NSCLC
  GI50: 342 nM
  TGI: 21500 nM
COLO 205 colon
  GI50: 353 nM
  TGI: > 53800 nM
786-0 renal
  GI50: 552 nM
  TGI: > 37500 nM
MALME-3M melanoma
  GI50: 964 nM
  TGI: 33600 nM
HCC-2998 colon
  GI50: 290 nM
  TGI: 33500 nM
K-562 leukemia
  GI50: 369 nM
  TGI: 12300 nM
IGROV1 ovarian
  GI50: 23.4 nM
  TGI: 74.5 nM
LOX IMVI melanoma
  GI50: 264 nM
  TGI: > 100000 nM
SN12C renal
  GI50: 783 nM
  TGI: > 73700 nM
CAKI-1 renal
  GI50: 257 nM
  TGI: 9720 nM
HL-60(TB) leukemia
  GI50: 215 nM
  TGI: 677 nM
DU-145 prostate
  GI50: 543 nM
  TGI: > 47000 nM
MCF7 breast
  GI50: 313 nM
  TGI: 29500 nM
HCT-15 colon
  GI50: 201 nM
  TGI: > 100000 nM
TK-10 renal
  GI50: 392 nM
  TGI: > 92600 nM
SF-539 CNS
  GI50: 583 nM
  TGI: 11300 nM
UACC-62 melanoma
  GI50: 378 nM
  TGI: 10600 nM
SF-268 CNS
  GI50: 488 nM
  TGI: > 51100 nM
A549 NSCLC
  GI50: 870 nM
  TGI: > 34100 nM
SW-620 colon
  GI50: 918 nM
  TGI: > 70100 nM
NCI/ADR-RES ovarian
  GI50: 512 nM
  TGI: 27900 nM
NCI-H226 lung
  GI50: 571 nM
  TGI: 36500 nM
RPMI-8226 leukemia
  GI50: 156 nM
  TGI: 983 nM
OVCAR-5 ovarian
  GI50: 701 nM
  TGI: 98300 nM
OVCAR-4 ovarian
  GI50: 82.2 nM
PC-3 prostate
  GI50: 1470 nM
  TGI: > 33100 nM
